Reference: the NIST ThermoML archive (doi:10.1016/j.jct.2008.01.008)

Assay: xn = mol fraction of the nth substance listed
Settings: 298.15 K, 101 kPa, Liquid; for viscosity: Capillary tube (Ostwald / Ubbelohde) method; for speed of sound: Sing-around technique in a fixed-path interferometer

COCC(C)OCC(C)OC (stereo not given) [2-methoxy-1-(2-methoxy-1-methylethoxy)propane] + CCCCCCCO
Settings	mass density [kg/m3]	speed of sound [m/s]	viscosity [mPa·s]
x1 = 0.0148	–	–	5.604
x1 = 0.0292	–	–	5.348
x1 = 0.0609	825.134	1317.8	–
x1 = 0.0718	–	–	4.664
x1 = 0.1164	830.66	1309.7	–
x1 = 0.1196	–	–	4.033
x1 = 0.157	834.553	1303	–
x1 = 0.1575	–	–	3.611
x1 = 0.1902	–	–	3.294
x1 = 0.2117	839.681	1295.5	–
x1 = 0.2555	–	–	3.016
x1 = 0.259	843.957	1289.2	–
x1 = 0.2613	–	–	2.766
x1 = 0.3119	–	–	2.468
x1 = 0.3132	848.706	1281.7	–
x1 = 0.3539	852.157	1276.4	–
x1 = 0.3616	–	–	2.235
x1 = 0.406	856.458	1270.5	–
x1 = 0.4129	–	–	2.031
x1 = 0.4366	–	–	1.949
x1 = 0.4532	–	–	1.895
x1 = 0.4533	860.298	1264.9	–
x1 = 0.5056	864.403	1258.8	–
x1 = 0.511	–	–	1.736
x1 = 0.5326	–	–	1.673
x1 = 0.552	867.948	1253.6	–
x1 = 0.5897	–	–	1.543
x1 = 0.5935	871.045	1249.2	–
x1 = 0.6316	873.865	1245.4	–
x1 = 0.6424	–	–	1.432
x1 = 0.7111	–	–	1.309
x1 = 0.7137	879.729	1236.2	–
x1 = 0.7457	–	–	1.25
x1 = 0.7666	883.415	1231	–
x1 = 0.7977	–	–	1.178
x1 = 0.8059	886.098	1226.6	–
x1 = 0.8495	889.001	1222.1	–
x1 = 0.8531	–	–	1.117
x1 = 0.8927	–	–	1.079
x1 = 0.9026	892.554	1216.1	–
x1 = 0.9293	894.156	1213	–
x1 = 0.9421	–	–	1.041
x1 = 0.9527	895.635	1210.7	–
x1 = 0.9678	–	–	1.02
x1 = 0.9935	–	–	0.9994

COCC(C)OCC(C)OC (stereo not given) [2-methoxy-1-(2-methoxy-1-methylethoxy)propane] + CCCCCO
Settings	mass density [kg/m3]	speed of sound [m/s]	viscosity [mPa·s]
x1 = 0.0005	–	–	3.49
x1 = 0.0143	813.241	1274.5	–
x1 = 0.0225	–	–	3.246
x1 = 0.0441	817.684	1272	–
x1 = 0.0499	–	–	2.986
x1 = 0.0656	–	–	2.851
x1 = 0.0946	–	–	2.627
x1 = 0.1045	826.045	1266.6	–
x1 = 0.1367	–	–	2.357
x1 = 0.1523	832.101	1262.4	–
x1 = 0.194	–	–	2.078
x1 = 0.2149	839.509	1257.2	–
x1 = 0.2414	–	–	1.891
x1 = 0.2431	842.645	1255	–
x1 = 0.2954	–	–	1.728
x1 = 0.2986	848.553	1250.7	–
x1 = 0.3419	852.922	1247.5	–
x1 = 0.3597	–	–	1.574
x1 = 0.374	856.019	1245	–
x1 = 0.4018	858.624	1243.2	–
x1 = 0.4152	–	–	1.464
x1 = 0.4303	–	–	1.436
x1 = 0.4549	863.364	1239.5	–
x1 = 0.468	–	–	1.38
x1 = 0.4941	–	–	1.345
x1 = 0.5038	867.504	1236.6	–
x1 = 0.5334	869.911	1234.7	–
x1 = 0.5552	–	–	1.274
x1 = 0.591	–	–	1.23
x1 = 0.6034	875.242	1230.3	–
x1 = 0.6553	878.913	1226.5	–
x1 = 0.6625	–	–	1.169
x1 = 0.6968	881.667	1224	–
x1 = 0.709	–	–	1.137
x1 = 0.7445	–	–	1.112
x1 = 0.7505	885.025	1221.2	–
x1 = 0.796	–	–	1.079
x1 = 0.7962	887.727	1218.6	–
x1 = 0.8509	890.774	1215.1	–
x1 = 0.8555	–	–	1.054
x1 = 0.9071	893.759	1211	–
x1 = 0.9258	–	–	1.02
x1 = 0.9476	895.868	1208.7	–
x1 = 0.96	896.501	1207.8	–
x1 = 0.9803	–	–	0.9997

COCC(C)OCC(C)OC (stereo not given) [2-methoxy-1-(2-methoxy-1-methylethoxy)propane] + CO
Settings	mass density [kg/m3]	speed of sound [m/s]	viscosity [mPa·s]
x1 = 0.0146	–	–	0.567
x1 = 0.023	799.44	1116.2	–
x1 = 0.0467	–	–	0.6092
x1 = 0.0705	820.052	1138.4	–
x1 = 0.0738	–	–	0.644
x1 = 0.1106	–	–	0.6831
x1 = 0.1312	838.725	1158.2	–
x1 = 0.1422	–	–	0.7112
x1 = 0.1632	846.233	1166.2	–
x1 = 0.1646	–	–	0.7327
x1 = 0.1725	–	–	0.7378
x1 = 0.1988	–	–	0.7576
x1 = 0.2058	–	–	0.7648
x1 = 0.2094	855.089	1175.4	–
x1 = 0.2514	861.6	1182	–
x1 = 0.2621	–	–	0.8031
x1 = 0.3018	867.961	1188.1	–
x1 = 0.3128	–	–	0.8321
x1 = 0.3583	–	–	0.8527
x1 = 0.3598	873.908	1193.9	–
x1 = 0.4	–	–	0.871
x1 = 0.4036	877.603	1197.3	–
x1 = 0.4549	881.296	1200.3	0.8941
x1 = 0.5022	884.189	1202.6	–
x1 = 0.5123	–	–	0.9106
x1 = 0.5449	886.449	1204.3	–
x1 = 0.5474	–	–	0.9206
x1 = 0.6169	889.615	1206.2	–
x1 = 0.6261	–	–	0.9387
x1 = 0.6494	890.83	1206.8	–
x1 = 0.6802	–	–	0.9504
x1 = 0.7083	892.78	1207.7	–
x1 = 0.7319	–	–	0.9598
x1 = 0.7557	–	–	0.9634
x1 = 0.756	894.087	1207.9	–
x1 = 0.7919	–	–	0.9682
x1 = 0.8114	895.425	1207.8	–
x1 = 0.8537	896.298	1207.6	–
x1 = 0.8565	–	–	0.9775
x1 = 0.9047	897.217	1207	–
x1 = 0.9185	–	–	0.9855
x1 = 0.9327	–	–	0.9862
x1 = 0.9364	897.708	1206.2	–
x1 = 0.9511	897.931	1206.2	–
x1 = 0.9572	–	–	0.9881
x1 = 0.974	–	–	0.9898
